Positions of bridges follow the written chain, without caps; N, C: chain ends. Residues, ends and D or L forms follow the SMILES beside them. No end group written: not given here.
Assays:
ICR mice = assay: Safety of IBP-CP24 for ICR mice; assay type: in vivo; conditions: for serum ALT level / serum creatinine level: i.p., CP24 10 mg/kg, IBP-CP24 10 or 100 mg/kg, before and 5 h, 1, 4 days post-injection
Procedure: Body weight changes of mice at different time points were monitored. Creatinine and ALT in the sera were measured by using the creatinine and ALT assay kits (NJJCBIO, Nanjing, China) before injection and 5 h, 1, and 4 days post-injection, respectively. All mice were sacrificed at day 15 post-injection, and the livers and kidneys were collected for haematoxylin and eosin (H&E) staining.

rhesus monkey IgG = assay: Isothermal titration calorimetry (ITC); assay type: binding; conditions: 300 μM peptide injected into 30 μM rhesus monkey IgG, PBS, 25 °C
Procedure: ITC assay was performed with an ITC microcalorimeter instrument (NANO ITC, TA Instruments, Lindon, UT) as described previously. In brief, 300 μM peptides were dissolved in PBS and injected into the chamber containing 30 μM of rhesus monkey IgG. The experiments were carried out at 25 °C. The time between injections was 300 s, and the stirring speed was 300 rpm. The heats of dilution were determined in control experiments by injecting peptides into PBS and then subtracting from the heats produced in the corresponding peptide-IgG binding experiments. Data acquisition and analysis were performed using the Origin software, and the best fitting curves were generated with GraphPad Prism.

M7 cells = assay: Cytotoxicity assay (CCK-8); assay type: cell-based; conditions: up to 5 μM, 48 h, triplicate
Procedure: (§1) The potential cytotoxicity of peptides on MT-2 and M7 cells was measured by using the Cell Counting Kit-8 according to the manufacturer’s instructions (CCK-8, Dojindo Laboratories, Kumamoto, Japan). Briefly, 100 μL of a peptide at graded concentrations were added to equal volumes of cells (10^4 cells/well) in a 96-well plate. Cell viability was evaluated using the CCK-8 kit after incubation at 37 °C for 2 days. Incubation with CCK-8 reagents at 37 °C for another 4 h, the absorbance at 450 nm was measured with an ELISA reader, and the percentage of cytotoxicity was calculated.

MT-2 cells = assay: Cytotoxicity assay (CCK-8); assay type: cell-based; conditions: for in vitro cytotoxicity to MT-2 cells: up to 5 μM, 48 h, CCK-8, triplicate
Procedure: as §1

[1] = test system: HIV-1 IIIB (subtype B, X4); assay type: cell-based; conditions: for IC50: IIIB (subtype B, X4)
Procedure: Briefly, 1×10^5/mL MT-2 or M7 cells were infected with different HIV-1 viruses at 100 TCID50 (50% tissue culture infective dose) in the presence or absence of peptides at graded concentrations overnight. Then the culture supernatants were replaced with equal volume of fresh medium. On the fourth day post-infection, supernatants were collected and mixed with equal volume of 5% Triton X-100. […] The IC50 values were calculated with CalcuSyn software [35–36], and inhibition curves of best fit were generated with GraphPad Prism.

human IgG = assay: ELISA binding to human IgG; conditions: for binding to human IgG: ELISA, dose-dependent, triplicate
Procedure: Next, different concentrations of human or rhesus monkey IgG were added to the peptide-coated plate and incubated at 37 °C for 1 h. Rabbit anti-human IgG-HRP (1:3000 diluted) was added to each well and incubated at 37 °C for another 1 h. Afterwards, the bound IgG-HRP was detected by addition of the HRP substrate TMB. The reaction was terminated by addition of 1 M H2SO4 50 μL. Absorbance at 450 nm was measured using an ELISA reader (Ultra 384; Tecan, Research Triangle Park, NC).
The data was fitted to the “one site – specific binding” using GraphPad Prism. The standard error (SE) is given for a sample size of three replicates per data point.

gp41 NHR peptide N36 = target: T1, gp41 NHR peptide N36 (Human immunodeficiency virus type 1 group M subtype B, UniProt P04578); assay: Thermostability of 6-HB formed with N36, by CD; assay type: binding, HIV-1; conditions: CD at 222 nm, 20 to 98 °C at 1.2 °C/min, 10 μM peptide in PBS
T1 construct: purchased KareBay Biochem, Inc; host or cells: solid-phase chemical synthesis
T1 sequence (P04578 546-581): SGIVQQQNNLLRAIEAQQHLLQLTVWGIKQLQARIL
Procedure: CD spectroscopy was conducted as previously described. Briefly, a CHR peptide was incubated with NHR peptide N36 at concentration of 10 μM at 37 °C for 30 min. The separated C-peptides were also measured. The CD spectra were measured on a Jasco spectropolarimeter (model J-815; Jasco, Inc., Easton, MD, USA), using a 1-nm bandwidth with a 1-nm step resolution from 195 to 260 nm at room temperature. The spectra were corrected by subtraction of PBS. The α-helical content was calculated from the CD signal by dividing the mean residue ellipticity [θ] at 222 nm by the value expected for 100% helix formation (-33,000 deg·cm^2·dmol^-1). The thermal denaturation experiment was performed by monitoring the changes in ellipticity [θ] at 222 nm at increasing temperature from 20 to 98 °C at a rate of 1.2 °C/min; data were acquired at a 1-nm bandwidth at 222 nm at a frequency of 0.25 Hz. The melting curve was smoothed, and the midpoint of the thermal unfolding transition (Tm) value was taken as the maximum of the derivative d[θ] 222/dt. Tm value was detected at a peptide concentration of 10 μM in PBS buffer.

HIV-1 JR-CSF = assay: Prophylactic efficacy against HIV-1 challenge in humanized mice; assay type: in vivo, humanized NRG (NRG-hu HSC) mice; conditions: for cell-associated HIV-1 DNA and RNA in spleen and bone marrow: day 28 post-infection, real-time PCR; for mice HIV-1 viremia-positive at 7 dpi / mice with viremia at 14 dpi / viral load at 7 dpi: humanized mice; for mice HIV-1 viremia-positive at 7 dpi: 20 mg/kg i.p. 2 h before challenge, 6 h post-infection and daily for 3 days, CP24 n = 8, IBP-CP24 n = 7; for mice with viremia at 14 dpi / viral load at 7 dpi: 20 mg/kg i.p. prophylactic regimen; for viral load at 7 dpi: plasma HIV-1 RNA
Procedure: The mice were challenged with HIV-1 JR-CSF (5 ng p24/mouse) through retro-orbital injection at 2 h post-treatment. Then the mice were treated with PBS or peptides at 6 hours post-infection and once every day for 3 consecutive days. Plasma samples were obtained for viral load determination at days 0, 7, 14, 21 and 28 post-infection.
HIV-1 genomic RNA was purified from plasma by using the QIAamp Viral RNA Mini Kit. The RNA was reverse-transcribed and quantitatively detected by real-time PCR with the TaqMan Fast Virus 1-Step PCR kit (Thermo Fisher Scientific). We used the forward primer 5’-[…]-3’ and the reverse primer 5’-[…]-3’ to detect the HIV gag gene. The probe (FAM-[…]-QSY7) used for detection was ordered from Applied Biosystems, and the reactions were set up following the manufacturer’s guidelines and were run on the QuantStudio 6 Flex PCR system (Applied Biosystems). The limit of detection of each real-time PCR was 4 copies per reaction. Accordingly, owing to the relatively small volume of plasma in mice (about 50–100 μL total blood), the limit of detection was 400 copies/mL plasma. The copy numbers below the detectable limit were set as 1. Triplicate reactions were performed for each sample.
To evaluate cell-associated HIV-1 DNA, total DNA was extracted from mouse spleen and bone marrow cells using the DNeasy Mini Kit (Qiagen). HIV-1 DNA was quantified by real-time PCR. DNA from serial dilutions of ACH2 cells, which contain 1 copy of the HIV genome in each cell, was used to create a standard curve.
To detect cell-associated HIV-1 RNA, total cell RNA was extracted from mouse spleen and bone marrow cells using the RNeasy Plus Mini Kit (Qiagen). The RNA was reverse-transcribed to cDNA and then quantified by real-time PCR, as described above. DNA from serial dilutions of ACH2 cells was used to generate a standard curve.

[2] = rhesus monkeys; for t1/2: plasma, 10 mg/kg i.v., active peptide concentration estimated from ex vivo anti-HIV-1 IIIB activity (DF-IC50) and in vitro IC50, MODFIT; for AUC(0-t) / Cmax / MRT 0-inf_obs / Tmax: concentration estimated from ex vivo anti-HIV-1 activity

Row | Compound | serum ALT level (ICR mice; versus PBS) | serum creatinine level (ICR mice; versus PBS) | Kd (rhesus monkey IgG) [µM] | in vitro cytotoxicity to M7 cells (M7 cells) | in vitro cytotoxicity to MT-2 cells (MT-2 cells) | IC50 [1] [µM] | binding to human IgG (human IgG) | Tm of the 6-HB formed with N36 (gp41 NHR peptide N36) [°C] | cell-associated HIV-1 DNA and RNA in spleen and bone marrow (HIV-1 JR-CSF) | mice HIV-1 viremia-positive at 7 dpi (HIV-1 JR-CSF) [%] | mice with viremia at 14 dpi (HIV-1 JR-CSF) [%] | viral load at 7 dpi (HIV-1 JR-CSF) | t1/2 [2] [h] | AUC(0-t) [2] [µg·h/mL] | Cmax [2] [µg/mL] | MRT 0-inf_obs [2] [h] | Tmax [2] [h] | other results
1 | CC[C@H](C)[C@H](NC(=O)[C@H](CC(C)C)NC(=O)[C@H](CCC(=O)O)NC(=O)[C@H](CCC(=O)O)NC(=O)[C@@H](NC(=O)[C@H](CCCCN)NC(=O)[C@H](CCCCN)NC(=O)[C@@H](NC(=O)[C@H](Cc1ccc(O)cc1)NC(=O)[C@H](CCC(=O)O)NC(=O)[C@H](CCC(=O)O)NC(=O)[C@@H](NC(=O)[C@H](CCCCN)NC(=O)[C@H](CCCCN)NC(=O)[C@H](CC(=O)O)NC(=O)[C@H](Cc1c[nH]c2ccccc12)NC(=O)[C@H](CCC(=O)O)NC(=O)[C@H](CCC(=O)O)NC(=O)[C@H](Cc1c[nH]c2ccccc12)NC(=O)[C@@H](NC(=O)[C@H](CCSC)NC(=O)[C@@H](NC(=O)[C@@H]1CSSC[C@H](NC(=O)[C@@H](N)CC(=O)O)C(=O)N[C@@H](C)C(=O)N[C@@H](Cc2c[nH]c3ccccc23)C(=O)N[C@@H](Cc2c[nH]cn2)C(=O)N[C@@H](CC(C)C)C(=O)NCC(=O)N[C@@H](CCC(=O)O)C(=O)N[C@@H](CC(C)C)C(=O)N[C@@H](C(C)C)C(=O)N[C@@H](Cc2c[nH]c3ccccc23)C(=O)N1)[C@@H](C)O)[C@@H](C)O)[C@@H](C)CC)[C@@H](C)O)[C@@H](C)CC)C(=O)N[C@@H](CCCCN)C(=O)N[C@@H](CCCCN)C(=O)N[C@@H](CO)C(=O)O [IBP-CP24] (H-DCAWHLGELVWCTMTWEEWDKKIEEYTKKIEELIKKS-OH; disulfide 2-12; N-terminus and C-terminus assumed) | no significant difference | no significant difference | 0.946 | no significant in vitro cytotoxicity | no significant in vitro cytotoxicity | 0.0059 | higher binding affinity with human IgG than IBP alone | 85.25 | undetectable | 28.5 | 28.5 | about 2.5 log10 copies/mL | 44.81 | 3610.65 | 76.23 | 61.39 | 4 | in vivo toxicity, overall (ICR mice; 10 and 100 mg/kg i.p.): no obvious in vivo toxicity; H&E stained sections of liver and kidneys (ICR mice; day 15 post-injection, versus PBS): no pathological abnormality; non-cytotoxic concentration fold higher than IC50 for HIV-1 inhibition (MT-2 cells; 5 μM versus IC50, MT-2 and M7 cells): more than 800 fold; fold more potent than CP24 against HIV-1 IIIB [1]: about 2.3 fold; Kd (human IgG; read-out: Estimated Kd of binding to human IgG, ELISA on peptide-coated plate, one site specific binding fit, ± SE, three replicates per point): 0.177 µM
2 | MTWEEWDKKIEEYTKKIEELIKKS [CP24, reference compound] | no significant difference | no significant difference | 1000 | no in vitro cytotoxicity | no in vitro cytotoxicity | 0.0195 | could not bind with human IgG | 78.69 | high levels | 50 | 62.5 | about 3.6 log10 copies/mL | 1.37 | 237.88 | 77.82 | 3.17 | 2 | 

Source: article PMC6894747 (PLoS Pathogens, 2019)
